Test results reported in paper PMC9295122, “Sialic Acid Derivatives Inhibit SiaT Transporters and Delay Bacterial Growth” (ACS Chemical Biology, 2022).

Tested on: P. mirabilis strain HI4320
Assay: Bacterial growth assay in MM with Neu5Ac, P. mirabilis
Format: cell-based, Proteus mirabilis
Conditions: P. mirabilis HI4320, MM + Neu5Ac 3.2 mM, compound 0.5 mM
Method: To investigate the efficacy of compounds 3e and 3f in inhibiting the uptake of Neu5Ac, bacterial growth assays were performed on a uropathogenic P. mirabilis strain HI4320 and a clinical HA-MRSA isolate S. aureus strain COL. The goal was to verify that compounds 3e and 3f alter bacterial growth when grown on Neu5Ac as an additional carbon source. Growth alteration would indicate Neu5Ac uptake impairment, thus validating our approach.
We first addressed whether these bacteria were able to catabolize the inhibitors and potentially use them as a carbon source for growth. Each strain was grown in carbon-limited defined minimal media (MM), without any carbon source other than sodium citrate for P. mirabilis and casamino acids for S. aureus, and supplemented with 3e and 3f. […] With these promising results, bacterial growth assays were performed in MM supplemented with Neu5Ac at a concentration of 3.2 mM and with 0.5 mM of compounds 3e and 3f (Figure 6a,b). The lag phase duration was determined as the time for the initial population density to increase twofold (see the horizontal dashed lines in Figure 6a,b). […] In the case of P. mirabilis, compound 3e indicated a delay in growth (3 h, P = 0.06), while no effect was recorded for compound 3f. […]

SMILES	delay in growth (lag phase)
CC(=O)NC1C(OCc2cc(F)cc(F)c2)CC(O)(C(=O)O)OC1C(O)C(O)CO (centres unmarked) [Compound 3e]	3 h
CC(=O)NC1C(OCc2cc(Br)cc(Br)c2)CC(O)(C(=O)O)OC1C(O)C(O)CO (centres unmarked) [Compound 3f]	no effect
